# pEC50: −log10 of the molar value.
# Key:
# [1] = Therapeutic index, ratio of IC50 for human H9 cells to EC50 for HIV 3B; type: cell-based; conditions: read-out: TI
# [2] = tested on: Human immunodeficiency virus 1; assay: Antiviral activity against HIV1 3B infected in H9 cells assessed as inhibition of viral replication by p24 antigen ELISA; type: functional, organism-based; conditions: Human immunodeficiency virus 1, 3B, H9; read-out: EC50
# [3] = Oral bioavailability in rat; type: ADME, organism-based; conditions: in vivo
# [4] = tested on: melanoma (human); assay: Growth inhibition of human melanoma cells; conditions: Melanoma tumor cell line
# [5] = tested on: Human immunodeficiency virus 1; assay: Antiviral activity against HIV1 infected in human CEM-SS cells assessed as inhibition of viral replication; type: functional, organism-based; conditions: Human immunodeficiency virus 1, CEM-SS
# [6] = tested on: Human immunodeficiency virus 1; assay: Antiviral activity against HIV1 NL4-3; type: functional, organism-based; conditions: Human immunodeficiency virus 1, NL4-3
# [7] = tested on: Human immunodeficiency virus 1; assay: Antiviral activity against HIV1 PI-R; type: functional, organism-based; conditions: Human immunodeficiency virus 1, PI-R
# [8] = Growth inhibition of human ovarian cancer cells; type: functional; conditions: Cancer cell lines
# [9] = Growth inhibition of human melanoma cells; type: functional; conditions: Melanoma cell
# [10] = Growth inhibition of human colon cancer cells; type: functional; conditions: Cancer cell lines
# [11] = Growth inhibition of human renal cancer cells; type: functional; conditions: Cancer cell lines
# [12] = Growth inhibition of human leukemia cells; type: functional; conditions: Leukemia cell
# [13] = Growth inhibition of human lung cancer cells; type: functional; conditions: Cancer cell lines
# [14] = Growth inhibition of human CNS cancer cells; type: functional; conditions: Cancer cell lines
# [15] = tested on: MCF7; assay: Cytotoxicity against human MCF7 cells after 72 hrs by MTT assay; type: functional, cell-based; conditions: MCF7, 72 h
# [16] = tested on: MDA-MB-231; assay: Cytotoxicity against human MDA-MB-231 cells after 72 hrs by MTT assay; type: functional, cell-based; conditions: MDA-MB-231, 72 h
# [17] = Cytotoxicity against human Hep3B cells after 72 hrs by MTT assay; type: functional, cell-based, Hep 3B2
smiles,measurement,setting,value
Cc1c(CO)c(=O)oc2c3c(ccc12)OC(C)(C)[C@H](OC(=O)C12CCC(C)(C(=O)O1)C2(C)C)[C@@H]3OC(=O)C12CCC(C)(C(=O)O1)C2(C)C (some centres not stated),selectivity ratio,[1],6000
same,pEC50,[2],8.38
same,bioavailability,[3],15%
O=C1c2ccsc2C(=O)c2sc(CO)cc21,GI50,[4],0.0182 µM
Cc1cc(=S)oc2c3c(ccc12)OC(C)(C)[C@H](OC(=O)C12CCC(C)(C(=O)O1)C2(C)C)[C@@H]3OC(=O)C12CCC(C)(C(=O)O1)C2(C)C (some centres not stated),pEC50,[5],7.19
CC(C)C[C@@H](NC(=O)[C@]12CCC(C)(C)C=C1[C@H]1CC[C@@H]3[C@@]4(C)CC[C@H](OC(=O)CC(C)(C)C(=O)O)C(C)(C)[C@@H]4CC[C@@]3(C)[C@]1(C)CC2)C(=O)O,pEC50,[6],8.07
same,pEC50,[7],7.68
COC(=O)[C@]12OC[C@]34[C@H]([C@@H](O)[C@@H]1O)[C@@]1(C)CC(=O)C(O)=C(C)[C@@H]1C[C@H]3OC(=O)[C@H](OC(=O)/C=C(/C)C(F)(F)F)[C@@H]24,GI50,[8],0.1 µM
same,GI50,[9],0.1 µM
same,GI50,[10],0.1 µM
same,GI50,[11],0.1 µM
same,GI50,[12],0.1 µM
same,GI50,[13],0.1 µM
same,GI50,[14],0.1 µM
O=C1C=CC(O)(c2cc(=O)c3c(ccc4ccccc43)o2)C=C1,IC50,[15],0.66 µg/mL
same,IC50,[16],0.39 µg/mL
same,IC50,[17],0.3 µg/mL
